The record followed here is patent US8541418B2, “Inhibitors of polo-like kinase” (Elan Pharmaceutical, Inc., priority 2009, dated 2013).

In general, IC50 refers to the concentration at which inhibition is half-maximal.

Common to all, as to format: biochemical
For one assay, the target named is PLK2 (Homo sapiens, UniProt Q9NYY3). The assay can be described thus: PLK TR-FRET peptide assay, PLK2. The following applies: for IC50: PLK TR-FRET peptide assay, GST-PLK2, 60 min reaction, read-out: Plk2 IC50; for relative PLK2 activity of the enantiomers: compared with the opposite enantiomer. A general note: Time-resolved FRET reads energy transfer from a long-lived donor to a nearby acceptor.

Another assay deals with PLK1 (Homo sapiens, UniProt P53350). The assay can be described thus: PLK TR-FRET peptide assay, PLK1. The following applies: GST-PLK1, 60 min reaction.
The next assay has as its target PLK3 (Homo sapiens, UniProt Q9H4B4). The assay can be described thus: PLK TR-FRET peptide assay, PLK3. As to conditions: GST-PLK3, 15 min reaction, read-out: Plk3 IC50.

A value given as a limit tells only on which side of the number the result lay.

Sequence of PLK3 (Q9H4B4 whole entry): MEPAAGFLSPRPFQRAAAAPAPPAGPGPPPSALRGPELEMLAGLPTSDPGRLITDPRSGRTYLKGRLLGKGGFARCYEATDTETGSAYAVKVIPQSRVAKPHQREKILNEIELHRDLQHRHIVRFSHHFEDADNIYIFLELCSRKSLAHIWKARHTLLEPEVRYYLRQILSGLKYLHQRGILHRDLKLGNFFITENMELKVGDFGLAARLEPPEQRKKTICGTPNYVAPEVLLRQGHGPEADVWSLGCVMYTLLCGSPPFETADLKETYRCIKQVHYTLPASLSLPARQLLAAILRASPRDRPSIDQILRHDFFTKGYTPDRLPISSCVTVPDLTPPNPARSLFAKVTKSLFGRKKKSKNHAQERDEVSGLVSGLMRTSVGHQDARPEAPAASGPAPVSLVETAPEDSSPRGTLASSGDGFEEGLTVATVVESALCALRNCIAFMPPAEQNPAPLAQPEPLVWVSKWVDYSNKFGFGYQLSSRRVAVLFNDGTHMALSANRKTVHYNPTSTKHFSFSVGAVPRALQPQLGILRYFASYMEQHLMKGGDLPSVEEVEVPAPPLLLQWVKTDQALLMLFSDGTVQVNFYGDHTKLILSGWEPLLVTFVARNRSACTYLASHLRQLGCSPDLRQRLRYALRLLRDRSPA
Sequence of PLK1 (P53350 whole entry): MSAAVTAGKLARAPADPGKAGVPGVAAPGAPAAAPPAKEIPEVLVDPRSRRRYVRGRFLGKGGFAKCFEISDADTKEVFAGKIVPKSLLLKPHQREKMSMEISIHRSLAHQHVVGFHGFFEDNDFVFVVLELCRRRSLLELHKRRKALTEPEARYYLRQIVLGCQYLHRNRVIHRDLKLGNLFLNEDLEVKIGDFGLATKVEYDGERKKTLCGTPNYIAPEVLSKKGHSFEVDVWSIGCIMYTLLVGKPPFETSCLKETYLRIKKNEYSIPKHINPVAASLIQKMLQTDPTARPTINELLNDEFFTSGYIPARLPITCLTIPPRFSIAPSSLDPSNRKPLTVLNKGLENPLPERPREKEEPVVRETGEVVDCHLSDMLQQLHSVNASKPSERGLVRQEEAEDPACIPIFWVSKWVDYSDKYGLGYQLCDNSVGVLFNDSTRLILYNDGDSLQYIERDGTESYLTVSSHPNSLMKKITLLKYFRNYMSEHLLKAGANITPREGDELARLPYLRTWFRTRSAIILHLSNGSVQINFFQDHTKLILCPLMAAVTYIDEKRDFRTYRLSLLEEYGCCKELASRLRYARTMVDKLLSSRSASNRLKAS
Sequence of PLK2 (Q9NYY3 whole entry): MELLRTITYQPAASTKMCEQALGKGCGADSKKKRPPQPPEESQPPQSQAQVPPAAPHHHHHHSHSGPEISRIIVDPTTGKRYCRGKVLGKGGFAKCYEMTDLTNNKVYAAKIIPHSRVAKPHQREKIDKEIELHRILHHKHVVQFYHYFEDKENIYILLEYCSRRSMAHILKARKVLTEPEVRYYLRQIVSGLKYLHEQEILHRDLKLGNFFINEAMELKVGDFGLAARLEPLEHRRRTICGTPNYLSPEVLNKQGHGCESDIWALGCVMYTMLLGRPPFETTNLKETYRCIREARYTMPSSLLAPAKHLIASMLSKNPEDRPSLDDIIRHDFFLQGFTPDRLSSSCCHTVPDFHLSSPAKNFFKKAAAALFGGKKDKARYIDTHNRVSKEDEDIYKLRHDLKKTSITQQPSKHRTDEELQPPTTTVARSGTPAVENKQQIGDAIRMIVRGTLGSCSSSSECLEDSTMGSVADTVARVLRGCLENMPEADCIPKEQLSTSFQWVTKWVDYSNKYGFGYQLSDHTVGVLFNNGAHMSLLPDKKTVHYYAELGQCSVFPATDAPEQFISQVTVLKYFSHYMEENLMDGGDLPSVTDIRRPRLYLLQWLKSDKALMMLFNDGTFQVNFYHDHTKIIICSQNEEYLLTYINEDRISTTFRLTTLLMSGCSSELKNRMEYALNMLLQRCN

In the case of `CC[C@@H]1C(=O)N(C)c2cnc(-n3ccnc3-c3nccs3)nc2N1C1CCC1` [Example 156, (R)-8-cyclobutyl-7-ethyl-5-methyl-2-(2-(thiazol-2-yl)-1H-imidazol-1-yl)-7,8-dihydropteridin-6(5H)-one], the IC50 was under 1 µM on PLK2, 1 to 10 µM at PLK1 and 1 to 10 µM on PLK3.

For `CC[C@@]12CCCN1c1nc(-c3cn[nH]c3-c3ccccc3)ncc1N(C)C2=O` [Example 305, (S)-6a-ethyl-5-methyl-2-(5-phenyl-1H-pyrazol-4-yl)-6a,7,8,9-tetrahydropyrrolo[2,1-h]pteridin-6(5H)-one], the IC50 at PLK2 is under 1 µM; at PLK1, 1 to 10 µM; on PLK3 it was 10 to 50 µM.

As for `CC[C@@H]1C(=O)N(C)c2cnc(-n3ccnc3-c3ccc(F)c(F)c3)nc2N1C1COC1` [Example 341, (R)-2-(2-(3,4-difluorophenyl)-1H-imidazol-1-yl)-7-ethyl-5-methyl-8-(oxetan-3-yl)-7,8-dihydropteridin-6(5H)-one], the figures for the IC50 on PLK2, against PLK1 and at PLK3 were 1 to 10 µM, over 50 µM and over 50 µM, respectively.

As for `CC[C@]12CCCCN1c1nc(-n3ccnc3)ncc1N(C)C2=O` [Example 287, (R)-6a-ethyl-2-(1H-imidazol-1-yl)-5-methyl-7,8,9,10-tetrahydro-5H-pyrido[2,1-h]pteridin-6(6aH)-one], the IC50 on PLK2, at PLK1 and on PLK3 was over 50 µM throughout.

As for `CC[C@@H]1C(=O)N(C)c2cnc(-c3scnc3-c3ccn[nH]3)nc2N1C(C)C` [Example 348, (R)-2-(4-(1H-pyrazol-5-yl)thiazol-5-yl)-7-ethyl-8-isopropyl-5-methyl-7,8-dihydropteridin-6(5H)-one], the results for the IC50 on PLK2, on PLK1 and on PLK3 were under 1 µM, 1 to 10 µM and 1 to 10 µM, respectively.

On to `CC[C@@]12CCCCN1c1nc(-n3ccnc3-c3cccc(F)c3F)ncc1N(C)C2=O` [Example 259, (S)-2-(2-(2,3-difluorophenyl)-1H-imidazol-1-yl)-6a-ethyl-5-methyl-7,8,9,10-tetrahydro-5H-pyrido[2,1-h]pteridin-6(6aH)-one], for which the IC50 was under 1 µM on PLK2, 1 to 10 µM against PLK1 and 1 to 10 µM on PLK3. Also, the “relative PLK2 activity of the enantiomers” value on PLK2 was “more active compound”.

In the case of `CC[C@@H]1C(=O)N(C)c2cnc(-c3ccncc3-c3ccccc3)nc2N1C1CCC1` [Example 96, (R)-8-cyclobutyl-7-ethyl-5-methyl-2-(3-phenylpyridin-4-yl)-7,8-dihydropteridin-6(5H)-one], the half-inhibitory concentration (IC50) at PLK2, at PLK1 and on PLK3 was under 1 µM each time.

Take `CC[C@@H]1C(=O)N(C)c2cnc(-c3ccnc(N(C)C)c3)nc2N1C1CCCC1` [Example 21, (R)-8-cyclopentyl-2-(2-(dimethylamino)pyridin-4-yl)-7-ethyl-5-methyl-7,8-dihydropteridin-6(5H)-one]: the IC50 on PLK2 was under 1 µM; against PLK1, under 1 µM; on PLK3, 10 to 50 µM.

Take `CC[C@@H]1C(=O)N(C)c2cnc(-n3ccnc3-c3ccc(F)c(F)c3)nc2N1C1CCC(F)(F)C1` (stereo partly drawn) [Example 237, (7R)-8-(3,3-difluorocyclopentyl)-2-(2-(3,4-difluorophenyl)-1H-imidazol-1-yl)-7-ethyl-5-methyl-7,8-dihydropteridin-6(5H)-one]: the values for the IC50 on PLK2, on PLK1 and on PLK3 were under 1 µM, under 1 µM and 1 to 10 µM, respectively.

Turning to `CC[C@@]12CCCN1c1nc(-n3ccnc3-c3cccc(Cl)c3)ncc1N(C)C2=O` [Example 236, (S)-2-(2-(3-chlorophenyl)-1H-imidazol-1-yl)-6a-ethyl-5-methyl-6a,7,8,9-tetrahydropyrrolo[2,1-h]pteridin-6(5H)-one], the IC50 at PLK2 is under 1 µM; at PLK1, 1 to 10 µM; at PLK3, 10 to 50 µM.

Consider `CC[C@@]12CCCN1c1nc(-c3nccnc3-c3ccccc3)ncc1N(C)C2=O` [Example 316, (S)-6a-ethyl-5-methyl-2-(3-phenylpyrazin-2-yl)-6a,7,8,9-tetrahydropyrrolo[2,1-h]pteridin-6(5H)-one], for which the IC50 lay in the range of 1 to 10 µM at PLK2, 10 to 50 µM at PLK1 and 1 to 10 µM on PLK3.

For the compound `CC[C@@H]1C(=O)N(C)c2cnc(-c3ccncc3NC(C)=O)nc2N1C1CCCC1` [Example 115, (R)—N-(4-(8-cyclopentyl-7-ethyl-5-methyl-6-oxo-5,6,7,8-tetrahydropteridin-2-yl)pyridin-3-yl)acetamide], the figures for the IC50 at PLK2, against PLK1 and at PLK3 were under 1 µM, 1 to 10 µM and 10 to 50 µM, respectively.

On to `CC[C@@H]1C(=O)N(C)c2cnc(-n3ccnc3-c3ccc(F)cc3)nc2N1c1cccc(C#N)c1` [Example 358, (R)-3-(7-ethyl-2-(2-(4-fluorophenyl)-1H-imidazol-1-yl)-5-methyl-6-oxo-6,7-dihydropteridin-8(5H)-yl)benzonitrile], for which the values for the IC50 at PLK2, on PLK1 and on PLK3 were under 1 µM, 1 to 10 µM and 1 to 10 µM, respectively. The “relative PLK2 activity of the enantiomers” value on PLK2 was “more active compound”.

Take `CC[C@@]12CCC(=O)N1c1nc(-n3ccnc3)ncc1N(C)C2=O` [Example 311, (S)-6a-ethyl-2-(1H-imidazol-1-yl)-5-methyl-7,8-dihydropyrrolo[2,1-h]pteridine-6,9(5H,6aH)-dione]: the IC50 at PLK2, on PLK1 and on PLK3 was over 50 µM throughout.

For the compound `CC[C@@]12CCCN1c1nc(-n3ccnc3-c3ccc(F)c(Cl)c3)ncc1N(C)C2=O` [Example 213, (S)-2-(2-(3-chloro-4-fluorophenyl)-1H-imidazol-1-yl)-6a-ethyl-5-methyl-6a,7,8,9-tetrahydropyrrolo[2,1-h]pteridin-6(5H)-one], the IC50 on PLK2 is under 1 µM; at PLK1 it was 10 to 50 µM; at PLK3, 10 to 50 µM.

`CC[C@@H]1C(=O)N(C)c2cnc(-n3ccnc3C3=CCCC3)nc2N1C1CCCC1` [Example 231, (R)-2-(2-cyclopentenyl-1H-imidazol-1-yl)-8-cyclopentyl-7-ethyl-5-methyl-7,8-dihydropteridin-6(5H)-one]: the IC50 on PLK2 was under 1 µM; against PLK1 it was 1 to 10 µM; at PLK3 it was 1 to 10 µM.

In the case of `CCC1C(=O)N(C)c2cnc(-n3cc[n+](C)c3-c3ccccc3)nc2N1NC` (centres unmarked) [Example 284, 1-(7-ethyl-5-methyl-8-(methylamino)-6-oxo-5,6,7,8-tetrahydropteridin-2-yl)-3-methyl-2-phenyl-1H-imidazol-3-ium], the IC50 on PLK2, on PLK1 and at PLK3 was over 50 µM in each case.

Turning to `CC[C@@H]1C(=O)N(C)c2cnc(N3CCN=C3C3CC3)nc2N1C(C)C` [Example 297, (R)-2-(2-cyclopropyl-4,5-dihydro-1H-imidazol-1-yl)-7-ethyl-8-isopropyl-5-methyl-7,8-dihydropteridin-6(5H)-one], the IC50 on PLK2, against PLK1 and at PLK3 was 10 to 50 µM throughout.

For the compound `CC[C@@]12CCCN1c1nc(-n3ccnc3-c3nccc4ccccc34)ncc1N(C)C2=O` [Example 206, (S)-6a-ethyl-2-(2-(isoquinolin-1-yl)-1H-imidazol-1-yl)-5-methyl-6a,7,8,9-tetrahydropyrrolo[2,1-h]pteridin-6(5H)-one], the IC50 at PLK2 is 1 to 10 µM; at PLK1, over 50 µM; on PLK3 it was 10 to 50 µM.

As to `CC[C@@H]1C(=O)N(C)c2cnc(-n3ccnc3-c3ccncc3)nc2N1C(C)C` [Example 150, (R)-7-ethyl-8-isopropyl-5-methyl-2-(2-(pyridin-4-yl)-1H-imidazol-1-yl)-7,8-dihydropteridin-6(5H)-one], the IC50 is under 1 µM on PLK2, 10 to 50 µM at PLK1 and 1 to 10 µM on PLK3.

In the case of `CC[C@H]1C(=O)N(C)c2cnc(-n3ccnc3-c3ccc(F)cc3)nc2N1c1cccc(C#N)c1` [Example 359, (S)-3-(7-ethyl-2-(2-(4-fluorophenyl)-1H-imidazol-1-yl)-5-methyl-6-oxo-6,7-dihydropteridin-8(5H)-yl)benzonitrile], the results for the IC50 at PLK2, on PLK1 and at PLK3 were 1 to 10 µM, over 50 µM and 10 to 50 µM, respectively.

With `CC[C@@H]1C(=O)N(C)c2cnc(-c3cn[nH]c3-c3cscn3)nc2N1C1CCCC1` [Example 307, (R)-8-cyclopentyl-7-ethyl-5-methyl-2-(5-(thiazol-4-yl)-1H-pyrazol-4-yl)-7,8-dihydropteridin-6(5H)-one], the IC50 on PLK2, on PLK1 and on PLK3 was under 1 µM in each case.

`CC[C@]12CCCCN1c1nc(-n3ccnc3-c3cccc(F)c3)ncc1N(C)C2=O` [Example 265, (R)-6a-ethyl-2-(2-(3-fluorophenyl)-1H-imidazol-1-yl)-5-methyl-7,8,9,10-tetrahydro-5H-pyrido[2,1-h]pteridin-6(6aH)-one]: the IC50 is 10 to 50 µM at PLK2, over 50 µM on PLK1 and over 50 µM at PLK3.

In the case of `CC[C@@H]1C(=O)N(C)c2cnc(-c3ccncc3CNC(=O)OC(C)(C)C)nc2N1C1CCCC1` [Example 106, (R)-tert-butyl (4-(8-cyclopentyl-7-ethyl-5-methyl-6-oxo-5,6,7,8-tetrahydropteridin-2-yl)pyridin-3-yl)methylcarbamate], the IC50 against PLK1 is 10 to 50 µM; at PLK3 it was over 50 µM.

`CC[C@@H]1C(=O)N(C)c2cnc(-c3ccccc3-c3ccccc3)nc2N1C1CCCC1` [Example 70, (R)-2-(biphenyl-2-yl)-8-cyclopentyl-7-ethyl-5-methyl-7,8-dihydropteridin-6(5H)-one]: the half-inhibitory concentration (IC50) at PLK1 and on PLK3 was under 1 µM throughout.

`CC[C@@]12CCCN1c1nc(-n3ccnc3-c3cccc(Br)c3)ncc1N(C)C2=O` [Example 252, (S)-2-(2-(3-bromophenyl)-1H-imidazol-1-yl)-6a-ethyl-5-methyl-6a,7,8,9-tetrahydropyrrolo[2,1-h]pteridin-6(5H)-one]: the IC50 against PLK1 is 1 to 10 µM; on PLK3, 10 to 50 µM.
